The values below come from patent publication US20080020977A1, “Use of Fullerenes to Oxidize Reduced Redox Proteins” (priority 2005, published 2008).

Test [1] relates to cytochrome c. The experiment in a line: Oxidation state of cytochrome c in the xanthine/xanthine oxidase system (absorbance at 550 nm). It counts as biochemical. Particulars: substituted fullerene added at time zero; versus blank without fullerene; data not shown. As for the experimental part:
The reduction of cytochrome c was performed by employing the xanthine/xanthine oxidase system. The reaction was initiated by the addition of xanthine oxidase (7.5×10^−3 units) to an incubation mixture containing 50 mM potassium phosphate, 0.1 mM EDTA, 0.01 mM cytochrome c, and 0.05 mM xanthine. Xanthine oxidase catalyzed the formation of superoxide radicals, which then reduced cytochrome c to the ferrous form. Reduction of cytochrome c was followed by recording the corresponding increase in the absorbance at 550 nm, using the molar absorption coefficients of 9 mmol^−1cm^−1 and 27.7 mmol^−1cm^−1 for the oxidized (ferric) and reduced (ferrous) forms, respectively. All assays were performed at room temperature. A volume of 3 mL was used in each experiment.
The effect of fullerenes on the oxidation state of cytochrome c was studied using substituted fullerenes C3 and DF-1, described above, wherein the substituted fullerene was added to the reaction mixture at 5, 10, or 15 minutes after addition of xanthine oxidase. Results are shown in FIG. 11, with time=0 for each run being the moment when the substituted fullerene was added. In the negative control, without fullerene (blank), reduction of cytochrome c (increase of absorbance at 550 nm) can be seen over 600 sec. […]

Test [2] deals with mice. To be noted: oral, about 0.5 mg/kg/day, cited from earlier work.

Turning to (C60(>C(COOH)2)3) [C3], in test [1], the “extent and rate of reduction of cytochrome c (increase of absorbance at 550 nm)” value is listed as “reduced”. Moreover, the mean survival in test [2] (controls 23.5+/−5.5 months) was 28.7+/−3.3 months. In addition, in test [2] (p=0.033), the “increase in mean survival relative to controls” value is listed as roughly 20%.
